Results reported in ChEMBL document CHEMBL5696441 (Nat Chem Biol, 2011).

Key:
[1] = target: Bone morphogenetic protein receptor type-2 (Homo sapiens) (UniProt Q13873); experiment: Inhibition of BMPR2 (unknown origin) assessed as remaining activity at 1 uM by Kinome scan method relative to control
CYP3A4 = CYP3A4 (Homo sapiens, UniProt P08684); experiment: Inhibition of CYP3A4 (unknown origin) at 10 uM relative to control; assay type: ADME
[2] = target: Serine/threonine-protein kinase NIM1 (Homo sapiens) (UniProt Q8IY84); experiment: Inhibition of NIM1 (unknown origin) assessed as remaining activity at 1 uM by Kinome scan method relative to control
[3] = target: Ribosomal protein S6 kinase alpha-3 (Homo sapiens) (UniProt P51812); experiment: Inhibition of human RPS6KA3 assessed as residual activity at 1 uM using bio-4xCHKT as substrate in presence of 33P-ATP by ProQinase assay relative to control
[4] = target: SRSF protein kinase 1 (Homo sapiens) (UniProt Q96SB4); experiment: Inhibition of SRPK1 (unknown origin) assessed as remaining activity at 1 uM by Kinome scan method relative to control
[5] = Anti-inflammatory activity against human derived high respond PBMC cells assessed as inhibition in stimulated MCP-1 chemokine release at 10 uM incubated for 2 hrs in the presence of LPS/SEB/aCD28 by Luminex based sandwich immunoassay relative to control; assay type: functional
[6] = target: Ephrin type-B receptor 2 (Homo sapiens) (UniProt P29323); experiment: Inhibition of EPHB2 (unknown origin) assessed as remaining activity at 1 uM by Kinome scan method relative to control
[7] = target: Serine/threonine-protein kinase SIK2 (Homo sapiens) (UniProt Q9H0K1); experiment: Inhibition of human SNF1LK2 assessed as residual activity at 1 uM using RBER-CHKtide as substrate in presence of 33P-ATP by ProQinase assay relative to control
[8] = target: Wee1-like protein kinase 2 (Homo sapiens) (UniProt P0C1S8); experiment: Inhibition of WEE2 (unknown origin) assessed as remaining activity at 1 uM by Kinome scan method relative to control
[9] = target: Serine/threonine-protein kinase Nek3 (Homo sapiens) (UniProt P51956); experiment: Inhibition of human NEK3 assessed as residual activity at 1 uM using RBER-CHKtide as substrate in presence of 33P-ATP by ProQinase assay relative to control
[10] = target: Homeodomain-interacting protein kinase 3 (Homo sapiens) (UniProt Q9H422); experiment: Inhibition of human HIPK3 assessed as residual activity at 1 uM using RBER-CHKtide as substrate in presence of 33P-ATP by ProQinase assay relative to control
[11] = target: Discoidin domain-containing receptor 2 (Homo sapiens) (UniProt Q16832); experiment: Inhibition of DDR2 (unknown origin) assessed as remaining activity at 1 uM by Kinome scan method relative to control
[12] = target: Ephrin type-B receptor 1 (Homo sapiens) (UniProt P54762); experiment: Inhibition of human EPHB1 assessed as residual activity at 1 uM using polyEY as substrate in presence of 33P-ATP by ProQinase assay relative to control
[13] = target: 5'-AMP-activated protein kinase catalytic subunit alpha-1 (Homo sapiens) (UniProt Q13131); experiment: Inhibition of AMPK-alpha1 (unknown origin) assessed as remaining activity at 1 uM by Kinome scan method relative to control
[14] = target: T1, Ephrin type-A receptor 3 (Homo sapiens) (UniProt P29320); experiment: Inhibition of human EPHA3 assessed as residual activity at 1 uM using polyEY as substrate in presence of 33P-ATP by ProQinase assay relative to control
T1 sequence (whole entry): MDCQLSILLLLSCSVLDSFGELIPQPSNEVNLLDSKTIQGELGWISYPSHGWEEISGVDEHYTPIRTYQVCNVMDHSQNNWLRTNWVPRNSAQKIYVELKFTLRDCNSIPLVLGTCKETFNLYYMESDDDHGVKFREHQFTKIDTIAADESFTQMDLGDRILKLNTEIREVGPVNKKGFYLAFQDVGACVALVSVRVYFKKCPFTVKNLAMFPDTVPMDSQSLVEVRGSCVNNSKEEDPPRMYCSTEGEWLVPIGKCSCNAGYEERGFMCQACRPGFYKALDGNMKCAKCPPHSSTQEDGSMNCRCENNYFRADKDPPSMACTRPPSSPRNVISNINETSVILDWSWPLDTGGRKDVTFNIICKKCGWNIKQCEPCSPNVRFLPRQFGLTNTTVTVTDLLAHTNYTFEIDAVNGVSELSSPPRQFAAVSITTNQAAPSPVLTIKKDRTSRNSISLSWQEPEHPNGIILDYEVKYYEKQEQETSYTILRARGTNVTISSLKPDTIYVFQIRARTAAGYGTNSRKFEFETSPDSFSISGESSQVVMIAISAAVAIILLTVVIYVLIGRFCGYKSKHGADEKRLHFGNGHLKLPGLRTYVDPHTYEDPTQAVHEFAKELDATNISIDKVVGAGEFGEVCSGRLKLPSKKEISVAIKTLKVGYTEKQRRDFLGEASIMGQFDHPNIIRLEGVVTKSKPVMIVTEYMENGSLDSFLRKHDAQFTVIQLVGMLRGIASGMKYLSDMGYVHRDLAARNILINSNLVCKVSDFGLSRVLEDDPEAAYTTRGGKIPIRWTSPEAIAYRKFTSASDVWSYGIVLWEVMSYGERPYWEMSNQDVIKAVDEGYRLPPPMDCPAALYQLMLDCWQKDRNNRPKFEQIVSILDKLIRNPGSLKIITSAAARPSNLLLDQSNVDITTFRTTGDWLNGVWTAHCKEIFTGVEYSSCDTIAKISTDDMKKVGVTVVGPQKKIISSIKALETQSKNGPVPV

[15] = target: DNA-dependent protein kinase catalytic subunit (Homo sapiens) (UniProt P78527); experiment: Inhibition of human DNPK1 assessed as residual activity at 1 uM using RBER-GSK3 as substrate in presence of 33P-ATP by ProQinase assay relative to control
[16] = target: G protein-coupled receptor kinase 5 (Homo sapiens) (UniProt P34947); experiment: Inhibition of human GRK5 assessed as residual activity at 1 uM using casein as substrate in presence of 33P-ATP by ProQinase assay relative to control
[17] = target: Fibroblast growth factor receptor 4 (Homo sapiens) (UniProt P22455); experiment: Inhibition of human FGFR4 assessed as residual activity at 1 uM using polyEy as substrate in presence of 33P-ATP by ProQinase assay relative to control
[18] = target: Mitogen-activated protein kinase kinase kinase 11 (Homo sapiens) (UniProt Q16584); experiment: Inhibition of human MAP3K11 assessed as residual activity at 1 uM using MBP as substrate in presence of 33P-ATP by ProQinase assay relative to control
[19] = target: Phosphatidylinositol 4-phosphate 5-kinase type-1 alpha (Homo sapiens) (UniProt Q99755); experiment: Inhibition of PIP5K1A (unknown origin) assessed as remaining activity at 1 uM by Kinome scan method relative to control
Phosphatidylinositol 4-phosphate 5-kinase type-1 alpha (Homo sapiens), sequence (Q99755 whole entry): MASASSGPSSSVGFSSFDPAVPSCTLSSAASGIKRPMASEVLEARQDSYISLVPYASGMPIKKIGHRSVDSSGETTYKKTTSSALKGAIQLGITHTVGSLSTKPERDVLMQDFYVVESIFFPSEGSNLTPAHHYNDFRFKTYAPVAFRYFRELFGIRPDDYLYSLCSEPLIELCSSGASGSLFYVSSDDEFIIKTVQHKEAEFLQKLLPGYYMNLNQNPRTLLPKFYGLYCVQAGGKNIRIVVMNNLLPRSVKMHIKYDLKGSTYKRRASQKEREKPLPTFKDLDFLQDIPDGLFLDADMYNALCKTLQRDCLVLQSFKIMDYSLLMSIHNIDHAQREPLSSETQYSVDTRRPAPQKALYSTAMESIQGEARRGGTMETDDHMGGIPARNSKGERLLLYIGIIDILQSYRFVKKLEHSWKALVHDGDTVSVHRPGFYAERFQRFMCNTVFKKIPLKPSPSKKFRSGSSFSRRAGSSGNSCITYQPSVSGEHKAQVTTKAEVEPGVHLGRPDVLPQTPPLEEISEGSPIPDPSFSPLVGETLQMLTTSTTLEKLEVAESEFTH

CYP3A4, sequence (P08684 whole entry): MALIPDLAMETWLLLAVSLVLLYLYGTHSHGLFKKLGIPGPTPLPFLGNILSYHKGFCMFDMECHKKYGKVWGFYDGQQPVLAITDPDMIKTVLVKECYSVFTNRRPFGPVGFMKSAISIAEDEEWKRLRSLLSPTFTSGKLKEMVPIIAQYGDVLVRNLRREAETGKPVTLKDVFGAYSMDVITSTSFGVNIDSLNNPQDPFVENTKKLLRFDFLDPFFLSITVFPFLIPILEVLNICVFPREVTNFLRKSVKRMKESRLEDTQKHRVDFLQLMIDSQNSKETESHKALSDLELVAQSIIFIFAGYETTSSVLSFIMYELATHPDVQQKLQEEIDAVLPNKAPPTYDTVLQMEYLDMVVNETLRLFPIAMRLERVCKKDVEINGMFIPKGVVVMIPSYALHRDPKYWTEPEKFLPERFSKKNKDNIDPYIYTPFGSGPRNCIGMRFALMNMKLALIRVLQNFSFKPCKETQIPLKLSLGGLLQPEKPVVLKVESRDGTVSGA
Ephrin type-B receptor 2 (Homo sapiens), sequence (P29323 whole entry): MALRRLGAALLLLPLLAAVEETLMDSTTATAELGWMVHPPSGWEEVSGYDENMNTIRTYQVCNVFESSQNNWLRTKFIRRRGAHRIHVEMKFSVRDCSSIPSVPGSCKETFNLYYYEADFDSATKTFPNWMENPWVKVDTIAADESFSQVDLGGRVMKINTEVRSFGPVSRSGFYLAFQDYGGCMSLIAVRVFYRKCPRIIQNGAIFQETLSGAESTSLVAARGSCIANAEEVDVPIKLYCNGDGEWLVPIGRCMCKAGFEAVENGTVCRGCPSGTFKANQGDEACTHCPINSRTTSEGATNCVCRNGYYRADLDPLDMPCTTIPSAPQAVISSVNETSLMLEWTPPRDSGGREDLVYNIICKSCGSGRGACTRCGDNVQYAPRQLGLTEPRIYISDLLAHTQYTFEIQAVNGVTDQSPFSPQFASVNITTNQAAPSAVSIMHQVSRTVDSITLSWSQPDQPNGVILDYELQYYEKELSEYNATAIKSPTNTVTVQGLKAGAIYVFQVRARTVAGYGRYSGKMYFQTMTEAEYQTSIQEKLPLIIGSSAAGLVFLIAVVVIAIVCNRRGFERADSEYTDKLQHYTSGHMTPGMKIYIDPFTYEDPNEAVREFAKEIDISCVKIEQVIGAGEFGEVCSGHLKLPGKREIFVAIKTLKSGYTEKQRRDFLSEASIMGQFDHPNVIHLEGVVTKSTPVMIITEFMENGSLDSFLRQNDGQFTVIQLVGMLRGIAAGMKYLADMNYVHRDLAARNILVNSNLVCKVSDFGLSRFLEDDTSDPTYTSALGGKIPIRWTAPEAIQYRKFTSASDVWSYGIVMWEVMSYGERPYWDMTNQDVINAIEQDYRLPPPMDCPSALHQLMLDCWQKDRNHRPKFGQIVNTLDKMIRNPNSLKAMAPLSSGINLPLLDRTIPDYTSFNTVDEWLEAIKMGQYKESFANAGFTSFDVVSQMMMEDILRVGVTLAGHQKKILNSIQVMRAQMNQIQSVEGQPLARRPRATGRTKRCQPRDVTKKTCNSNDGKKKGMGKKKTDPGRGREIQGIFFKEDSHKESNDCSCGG
Mitogen-activated protein kinase kinase kinase 11 (Homo sapiens), sequence (Q16584 whole entry, looked up): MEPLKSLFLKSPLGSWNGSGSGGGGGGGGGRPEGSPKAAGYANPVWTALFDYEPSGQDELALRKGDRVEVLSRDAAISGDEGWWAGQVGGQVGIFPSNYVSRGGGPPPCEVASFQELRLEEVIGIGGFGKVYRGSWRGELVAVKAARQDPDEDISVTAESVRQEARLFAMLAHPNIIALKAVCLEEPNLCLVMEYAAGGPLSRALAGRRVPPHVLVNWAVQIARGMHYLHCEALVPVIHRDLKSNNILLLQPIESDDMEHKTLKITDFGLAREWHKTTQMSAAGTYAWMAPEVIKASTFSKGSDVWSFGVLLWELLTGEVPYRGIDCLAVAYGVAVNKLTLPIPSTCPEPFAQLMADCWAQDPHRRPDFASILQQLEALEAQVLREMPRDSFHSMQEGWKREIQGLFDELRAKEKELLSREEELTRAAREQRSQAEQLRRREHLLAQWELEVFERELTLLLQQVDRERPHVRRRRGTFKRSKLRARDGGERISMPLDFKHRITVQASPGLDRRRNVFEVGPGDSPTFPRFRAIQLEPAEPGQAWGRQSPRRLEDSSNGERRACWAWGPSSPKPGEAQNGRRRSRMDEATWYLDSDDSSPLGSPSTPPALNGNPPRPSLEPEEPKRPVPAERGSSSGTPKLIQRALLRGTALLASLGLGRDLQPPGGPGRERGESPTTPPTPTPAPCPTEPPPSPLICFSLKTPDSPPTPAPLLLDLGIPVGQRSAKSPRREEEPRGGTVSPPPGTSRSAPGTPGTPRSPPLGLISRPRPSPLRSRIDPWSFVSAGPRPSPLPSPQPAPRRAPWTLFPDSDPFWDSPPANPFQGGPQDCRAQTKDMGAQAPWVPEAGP
Bone morphogenetic protein receptor type-2 (Homo sapiens), sequence (Q13873 whole entry): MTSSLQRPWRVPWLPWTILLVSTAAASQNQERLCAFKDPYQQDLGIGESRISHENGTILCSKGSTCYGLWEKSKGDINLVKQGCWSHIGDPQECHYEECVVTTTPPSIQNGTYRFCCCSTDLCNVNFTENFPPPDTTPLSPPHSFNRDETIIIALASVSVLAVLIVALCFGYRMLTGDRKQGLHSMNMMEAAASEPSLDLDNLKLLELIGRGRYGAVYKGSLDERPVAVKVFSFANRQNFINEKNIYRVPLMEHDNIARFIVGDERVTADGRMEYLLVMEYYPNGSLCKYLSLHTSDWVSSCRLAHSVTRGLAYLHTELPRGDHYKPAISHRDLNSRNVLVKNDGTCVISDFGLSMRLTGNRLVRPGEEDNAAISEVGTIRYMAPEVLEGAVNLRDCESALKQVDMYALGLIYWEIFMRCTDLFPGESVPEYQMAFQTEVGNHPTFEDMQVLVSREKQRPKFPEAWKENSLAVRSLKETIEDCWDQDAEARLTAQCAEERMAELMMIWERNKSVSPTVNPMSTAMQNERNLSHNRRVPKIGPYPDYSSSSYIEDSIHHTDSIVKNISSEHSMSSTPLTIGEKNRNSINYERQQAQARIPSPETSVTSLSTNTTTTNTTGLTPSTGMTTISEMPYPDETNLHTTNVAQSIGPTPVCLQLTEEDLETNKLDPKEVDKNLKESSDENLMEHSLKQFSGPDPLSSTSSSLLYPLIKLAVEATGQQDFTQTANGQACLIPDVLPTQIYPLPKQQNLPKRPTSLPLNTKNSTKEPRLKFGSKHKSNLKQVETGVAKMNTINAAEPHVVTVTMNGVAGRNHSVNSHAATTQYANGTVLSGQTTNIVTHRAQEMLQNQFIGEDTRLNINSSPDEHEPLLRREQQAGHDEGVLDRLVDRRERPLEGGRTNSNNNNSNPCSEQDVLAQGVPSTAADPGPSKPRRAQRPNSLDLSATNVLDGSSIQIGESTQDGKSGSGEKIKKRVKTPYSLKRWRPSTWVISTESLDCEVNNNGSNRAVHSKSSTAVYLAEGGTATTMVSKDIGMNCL
Discoidin domain-containing receptor 2 (Homo sapiens), sequence (Q16832 whole entry, the tested form may be a part): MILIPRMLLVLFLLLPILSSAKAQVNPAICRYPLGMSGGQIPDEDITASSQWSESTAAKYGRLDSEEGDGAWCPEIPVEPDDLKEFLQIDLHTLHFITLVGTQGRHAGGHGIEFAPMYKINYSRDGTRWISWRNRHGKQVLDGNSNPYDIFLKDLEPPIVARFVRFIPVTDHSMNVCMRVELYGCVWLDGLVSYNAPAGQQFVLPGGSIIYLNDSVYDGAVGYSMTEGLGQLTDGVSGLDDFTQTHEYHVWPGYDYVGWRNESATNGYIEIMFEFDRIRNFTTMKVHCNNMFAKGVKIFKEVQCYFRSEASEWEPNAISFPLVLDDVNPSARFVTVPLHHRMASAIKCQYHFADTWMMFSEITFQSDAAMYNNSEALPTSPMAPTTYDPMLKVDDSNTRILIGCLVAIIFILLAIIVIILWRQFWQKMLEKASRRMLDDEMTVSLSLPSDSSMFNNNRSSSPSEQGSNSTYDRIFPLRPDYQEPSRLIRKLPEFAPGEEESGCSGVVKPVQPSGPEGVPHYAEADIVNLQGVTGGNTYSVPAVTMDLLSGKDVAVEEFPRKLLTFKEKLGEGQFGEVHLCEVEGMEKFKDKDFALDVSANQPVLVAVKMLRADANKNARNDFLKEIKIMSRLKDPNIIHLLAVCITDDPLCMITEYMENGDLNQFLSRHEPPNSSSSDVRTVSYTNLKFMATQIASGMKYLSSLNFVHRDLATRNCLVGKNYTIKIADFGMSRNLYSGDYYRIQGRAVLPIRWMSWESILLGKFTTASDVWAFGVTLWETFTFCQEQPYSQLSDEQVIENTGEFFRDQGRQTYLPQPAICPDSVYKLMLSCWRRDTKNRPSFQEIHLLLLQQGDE

With O=C1c2ccc(Nc3ccc(F)cc3F)cc2CCc2ccc(OC[C@H](O)CO)cc21 [Skepinone-L] as the compound, how does the Activity [1] read?
The Activity was 100%.

And the inhibition at 10 µM (CYP3A4)?
Its inhibition at 10 µM is 34%.

And the Activity [2]?
The Activity was 100%.

And the Activity [3]?
The Activity was 89%.

And the Activity [4]?
The Activity was 100%.

And the inhibition at 10 µM [5]?
The inhibition at 10 µM was 25%.

And the Activity [6]?
The Activity was 97%.

What about the Activity [7] of the same compound?
Its Activity is 86%.

And the Activity [8]?
Its Activity is 90%.

And the Activity [9]?
The Activity was 85%.

And the Activity [10]?
The Activity was 91%.

What about the Activity [11] of the same compound?
Its Activity is 100%.

And the Activity [12]?
The Activity was 116%.

And the Activity [13]?
Its Activity is 98%.

And the Activity [14]?
Its Activity is 107%.

And the Activity [15]?
The Activity was 82%.

What about the Activity [16] of the same compound?
Its Activity is 121%.

And the Activity [17]?
The Activity was 103%.

And the Activity [18]?
The Activity was 114%.

What about the Activity [19] of the same compound?
The Activity was 100%.
